Source: patent publication US20220152174A1, “Cancer Antigen Peptide” (National University Corporation Asahikawa Medical University, priority 2018, published 2022)

Columns and labels:
[1] = system: SPESP1 gene expression in EBC1 or Lu65 tumor tissues; test: SPESP1 gene expression in tumor tissues of nude mice given 5-AZA; assay type: in vivo, mouse; conditions: 5-AZA i.p.; tumors Day 25; vs PBS alone
Method: Similarly, nude mice were intradermally injected with cells of lung cancer cell line EBC1 (5×10^5 cells) or Lu65 (5×10^5 cells), and 5-AZA or PBS (control) was intraperitoneally administered. The RNAs were extracted from the tumor tissues collected on Day 25, and the gene expression levels of SPESP1 and GAPDH were analyzed by real-time PCR.

[2] = system: SPESP1 gene expression in SW839, 5637, LC2/Ad, EBC1, HT-29, Lu65, SAS; test: SPESP1 gene expression by real-time PCR in 5-AZA-treated cancer cell lines; assay type: cell-based, human; conditions: all tested cell lines
Method: Cells of cancer cell lines (lung cancer cell line EBC1, lung cancer cell line Lu65, colon cancer cell line HT-29, and oral squamous cell carcinoma cell line SAS) were cultured in the complete medium (RPMI 1640 medium (nacalai tesque 30264-56) with 100 U/mL penicillin (Meiji Seika) and 100 μg/L streptomycin (Meiji Seika), added with 10% fetal bovine serum (biosera FB-1365/500) which had been immobilized at 56° C. for 30 minutes) containing 5-AZA (10 μM) at the density of 2×10^5 cells/well in 6-well plates (Falcon 353046) in an incubator (SANYO) set at 37° C., 5% CO2, and 95% humidity for 3 days. […] The RNAs were extracted with RNeasy Mini Kit (Qiagen 74106), and the cDNAs were synthesized by using PrimeScript 1st strand cDNA Synthesis Kit (Takara Bio 6110A), and the gene expression levels of GAPDH (Applied Biosystems Hs02786624_g1) and SYCP3 (Applied Biosystems Hs00538146_m1) were analyzed by real-time PCR using LightCycler480 (Roche). […]
Similarly, cells of renal cancer cell line SW839, bladder cancer cell line 5637, lung adenocarcinoma cell line LC2/Ad, lung cancer cell line EBC1, colon cancer cell line HT-29, lung cancer cell line Lu65, and oral squamous cell carcinoma cell line SAS were cultured in the presence of 5-AZA, and the gene expression levels of GAPDH and SPESP1 (Applied Biosystems Hs00377364_m1) were analyzed.

[3] = system: DAZL1 protein in E0771 and C1498; test: DAZL1 protein by Western blotting in mouse cancer cell lines; assay type: cell-based; conditions: 5-AZA 10 μM
Method: Cells of mouse cancer cell lines (E0771:C57BL/6 mouse breast cancer cell line and C1498:C57BL/6 mouse acute myeloid leukemia cell line) were treated with 5-AZA (10 μM), and the amount of DAZL1 protein was analyzed by Western blotting.

[4] = system: mouse DAZL1 gene expression in WEHI-3; test: DAZL1 gene expression by real-time PCR in 5-AZA-treated WEHI-3; assay type: cell-based
Method: Cells of cancer cell lines (lung cancer cell line EBC1, lung cancer cell line Lu65, colon cancer cell line HT-29, and oral squamous cell carcinoma cell line SAS) were cultured in the complete medium (RPMI 1640 medium (nacalai tesque 30264-56) with 100 U/mL penicillin (Meiji Seika) and […] streptomycin (Meiji Seika), added with 10% fetal bovine serum (biosera FB-1365/500) which had been […] at 56° C. for 30 minutes) containing 5-AZA (10 μM) at the density of 2×10^5 cells/well in 6-well plates (Falcon 353046) in an incubator (SANYO) set at 37° C., 5% CO2, and 95% humidity for 3 days. The same incubator was used for all cell cultures in the following tests. The cells were washed with 2 mL of a phosphate-buffered saline (PBS, KANTO CHEMICAL CO., INC. 73111). The RNAs were extracted with RNeasy Mini Kit (Qiagen 74106), and the cDNAs were synthesized by using PrimeScript 1st strand cDNA Synthesis Kit (Takara Bio 6110A), and the gene expression levels of GAPDH (Applied Biosystems Hs02786624_g1) and SYCP3 (Applied Biosystems Hs00538146_m1) were analyzed by real-time PCR using LightCycler480 (Roche). […]
Similarly, cells of mouse leukemia cell line WEHI-3 (Balb/c) was cultured in the presence of 5-AZA, and the gene expression levels of mouse GAPDH (Applied Biosystems Mm99999915_g1) and mouse DAZL1 (Applied Biosystems Mm01273546_m1) were analyzed.

[5] = system: lung cancer cell line Lu65; test: Tumor growth in nude mice bearing Lu65; assay type: in vivo, mouse; conditions: BALB/c nude mice, 5-AZA 150 nmol/g i.p. Days 7, 12, 17, 22, Th cells i.v. Days 13, 20, 27
Method: BALB/c nude mice (10 to 14 weeks old, CHARLES RIVER LABORATORIES JAPAN) were intradermally injected with 3×10^6 cells of lung cancer cell line Lu65 using Myjector, and on Days 7, 12, 17, and 22, 200 μL of PBS containing 5-AZA (150 nmol/g of mouse body weight) was intraperitoneally administered using Myjector. To the control mice, 200 μL of PBS was intraperitoneally administered. On Days 13, 20, and 27, 200 μL of SYCP3-specific human Th cells (3 to 5×10^6 cells) were administered by tail vein administration. To the control mice, 200 μL of PBS was administered by tail vein administration. The tumor surface areas were measured over time.

[6] = system: SYCP3 protein in EBC1 and Lu65; test: SYCP3 protein by Western blotting; assay type: cell-based, human; conditions: EBC1 and Lu65 treated with 5-AZA
Method: The amount of SYCP3 protein in EBC1 and Lu65 treated with 5-AZA was analyzed by Western blotting. An anti-SYCP3 antibody (Mouse anti-SCP3, BD Bioscience 611230) diluted at 1:200 was used as the primary antibody. Upregulation of SYCP3 by the 5-AZA treatment was also observed at the protein level.

[7] = system: lung cancer cell line A549; test: DNA microarray gene expression after 5-AZA treatment; assay type: cell-based, human
Method: Cells of lung cancer cell line A549 were treated with 5-AZA (10 μM) for 3 days and the RNAs were extracted. Gene expression levels were measured using DNA microarrays. The criteria for identifying the candidate genes were that the expression level was close to 0 in the non-treated cells and increased by 30 times or more in the 5-AZA-treated cells. Some candidate genes were found, including SYCP3 (untreated: 3.0, 5-AZA treated: 340.9, fold-change: […]), SPESP1 (untreated: 1.7, 5-AZA treated: 65.3, fold-change: […]), and DAZL1 (untreated: 2.8, 5-AZA treated: 341.3, fold-change: 123.6).

[8] = system: SYCP3 gene expression in HT-29 or WiDr tumor tissues; test: SYCP3 gene expression in tumor tissues of nude mice given 5-AZA; assay type: in vivo, mouse; conditions: 5-AZA 1.6 μg/g i.p. Days 5, 10, 15, 20; tumors Day 25; vs PBS alone
Method: To the control mice, 200 μL of PBS was intraperitoneally administered.

[9] = system: SYCP3 gene expression in EBC1, Lu65, HT-29, SAS; test: SYCP3 gene expression by real-time PCR in 5-AZA-treated cancer cell lines; assay type: cell-based, human; conditions: 5-AZA 10 μM, 3 days; all tested cell lines (EBC1, Lu65, HT-29, SAS)
Method: Cells of cancer cell lines (lung cancer cell line EBC1, lung cancer cell line Lu65, colon cancer cell line HT-29, and oral squamous cell carcinoma cell line SAS) were cultured in the complete medium (RPMI 1640 medium (nacalai tesque 30264-56) with 100 U/mL penicillin (Meiji Seika) and […] streptomycin (Meiji Seika), added with 10% fetal bovine serum (biosera FB-1365/500) which had been […] at 56° C. for 30 minutes) containing 5-AZA (10 μM) at the density of 2×10^5 cells/well in 6-well plates (Falcon 353046) in an incubator (SANYO) set at 37° C., 5% CO2, and 95% humidity for 3 days. The same incubator was used for all cell cultures in the following tests. The cells were washed with 2 mL of a phosphate-buffered saline (PBS, KANTO CHEMICAL CO., INC. 73111). The RNAs were extracted with RNeasy Mini Kit (Qiagen 74106), and the cDNAs were synthesized by using PrimeScript 1st strand cDNA Synthesis Kit (Takara Bio 6110A), and the gene expression levels of GAPDH (Applied Biosystems Hs02786624_g1) and SYCP3 (Applied Biosystems Hs00538146_m1) were analyzed by real-time PCR using LightCycler480 (Roche). Each step was carried out in accordance with the description of the package inserts attached to each reagent.

[10] = system: DR53-positive cancer cell lines (WiDr, Lu65, and Calu1); conditions: cancer cells pretreated with 10 μM 5-AZA and 500 U/mL IFN-γ for 3 days; co-culture 24 hours
Method: In order to study the reactivity of SYCP3-A peptide-specific CD4-positive T-cells toward cells of cancer cell lines, DR53-positive cancer cell lines (WiDr, Lu65, and Calu1) were used. The cancer cells were cultured in 6-well culture plates for 3 days using 2 mL of the complete medium containing 10 μM 5-AZA and 500 U/mL IFN-γ (Immunomax-γ for injection 50, Shionogi), which can induce expression of HLA class II molecules on the surfaces of cancer cells. The culture plates were thoroughly washed with PBS, 1 mL of 5 mM EDTA (ethylenediaminetetraacetic acid, nacalai tesque 14347-21) was added to suspend the cells, and the cells were recovered. In the same manner as in Test 8, 1×10^4 cells of each cell line and 5×10^4 CD4-positive T-cells were co-cultured in 96-well flat bottom culture plates using 200 μL of the culture medium for human cells. […] After 24 hours 100 μL of the culture supernatants were collected from each well, and the IFN-γ concentrations were determined using the ELISA kit.

[11] = A549, 5-AZA 10 μM, 3 days, DNA microarray
[12] = A549, 5-AZA treated vs untreated

Nc1ncn([C@H]2C[C@H](O)[C@@H](CO)O2)c(=O)n1 [5-AZA, 5-aza-2′-deoxycytidine]
SPESP1 gene expression in tumor tissues [1]: upregulated | SPESP1 gene expression level [2]: upregulated | amount of DAZL1 protein [3]: upregulated | DAZL1 gene expression level [4]: upregulated | tumor growth (tumor surface area) [5]: No effect | amount of SYCP3 protein [6]: Upregulation | DAZL1 gene expression level, 5-AZA treated [7, 11]: 341.3 | SPESP1 gene expression level, 5-AZA treated [7, 11]: 65.3 | SYCP3 gene expression level, 5-AZA treated [7, 11]: 340.9 | DAZL1 fold-change [7, 12]: 123.6 | SPESP1 fold-change [7, 12]: 38.8 | SYCP3 fold-change [7, 12]: 112.3 | SYCP3 gene expression in tumor tissues [8]: upregulated | SYCP3 gene expression level [9]: upregulated | IFN-γ production of SYCP3-A-specific CD4-positive T-cells toward cancer cells [10]: increased the IFN-γ production
